Measurements from article PMC12473689, “Drug Metabolism and Pharmacokinetics of Oxazolo[4,5-c]quinoline Analogs as Novel Interleukin-33 Inhibitors” (Pharmaceutics, 2025).
Where a name gives a salt, the structure may show the parent alone. Blank lines part the entries; values can stand above or below the compound they belong to.

Key:
[1] = Plasma protein binding by equilibrium dialysis (RED), mouse plasma; assay type: in vitro ADME; conditions: male, ICR, equilibrium dialysis 37 °C 4 h, mean ± SD (n = 3), read-out: fu (%) plasma protein binding
Protocol: (§1) The nonspecific binding of KB-1517 and KB-1518 in human and mouse plasma and liver S9 fractions was determined by equilibrium dialysis using a Rapid Equilibrium Device (RED) system (Thermo Fisher Scientific, Seoul, Republic of Korea).
(§2) Working solutions (200 μM for plasma, 60 μM for S9 fractions) were prepared in 40% aqueous acetonitrile. These were diluted 20-fold into either plasma or S9 incubation buffer (1 mg/mL protein, 200 mM Tris-HCl, 2 mM MgCl2, pH 7.4) to create the final dosing solutions.
(§3) For the dialysis, RED inserts (8 kDa MWCO) were used. Into each device, 200 μL of a dosing solution was added to the sample chamber, and 350 μL of PBS was added to the buffer chamber. The plate was sealed and incubated at 37 °C for 4 h on an orbital shaker (100 rpm) to allow the system to reach equilibrium.
(§4) Following incubation, 50 μL aliquots were taken from both chambers. To ensure analytical consistency, the samples were matrix-matched: the sample chamber aliquot was mixed with 50 μL of PBS, and the buffer chamber aliquot was mixed with 50 μL of the corresponding blank matrix (plasma or S9 incubation buffer). Proteins were then precipitated by adding 200 μL of ice-cold acetonitrile containing diclofenac (1 μg/mL) as IS. The samples were subsequently vortexed, sonicated for 5 min, and centrifuged at 4000× g for 20 min. Finally, a 100 μL aliquot of the resulting supernatant was diluted with 100 μL of HPLC-grade water in a 96-well plate for subsequent LC-MS/MS analysis.

[2] = Plasma protein binding by equilibrium dialysis (RED), human plasma; assay type: in vitro ADME; conditions: equilibrium dialysis 37 °C 4 h, mean ± SD (n = 3), read-out: fu (%) plasma protein binding
Protocol: as §1, §2, §3, §4

[3] = Metabolite identification in liver S9 incubations; assay type: in vitro ADME; conditions: S9 1 mg protein/mL, 60 min, 37 °C, H: human, M: mouse
Protocol: The incubation mixture (final volume 200 µL) contained: 125 µL of deionized water, 40 µL of Tris mix buffer, 10 µL of 20 mg protein/mL S9 fraction (final concentration 1 mg protein/mL), and 5 µL of the test compound working solution (final concentration 3 µM). The final concentrations of DMSO and acetonitrile were 0.03% and 1%, respectively. The mixture was pre-incubated at 37 °C for 5 min in a shaking water bath. The reaction was initiated by adding 20 µL of the combined cofactor solution (final concentrations: 1 mM NADPH, 0.5 mM UDPGA, 0.1 mM PAPS, 2.5 mM GSH). Control incubations were performed without the cofactor mixture (replaced with buffer) and at 0 min (quenched immediately after adding cofactors). Incubations were carried out at 37 °C for 0, 15, 30, and 60 min (for stability) or 60 min (for metabolite ID). Reactions were terminated by adding 200 µL of ice-cold acetonitrile containing IS (diclofenac).
Metabolite identification was performed using samples generated from the in vitro liver S9 incubations (final substrate concentration 20 µM, 60 min incubation) and plasma samples from the in vivo IP administration study. Samples were analyzed using an Agilent 6530 Q-TOF LC-MS/MS system (Agilent Technologies Korea Ltd., Seoul, Republic of Korea). Data processing and metabolite identification were performed using Agilent MassHunter Metabolite ID software (ver. B.04.00), searching for expected biotransformations (e.g., oxidation, demethylation, glucuronidation, sulfation, GSH conjugation) and comparing MS/MS fragmentation patterns of metabolites with the parent drug.
Qualitative analysis for metabolite identification was performed using the same LC system coupled to an Agilent 6530 Q-TOF mass spectrometer system (Agilent Technologies Korea Ltd., Seoul, Republic of Korea) with a dual AJS ESI source operating in positive ion mode. The chromatographic conditions were identical to those used for quantitative analysis.
The ion source parameters for the mass spectrometer were set as follows: gas temperature 325 °C, gas flow 12 L/min, nebulizer pressure 35 psi, sheath gas temperature 350 °C, and sheath gas flow 10 L/min. Data were acquired in MS scan mode (m/z 100–1000) and targeted MS/MS or Auto MS/MS mode. Data acquisition and processing were performed using Agilent MassHunter Qualitative Analysis (ver. B.05.00) and Metabolite ID software (ver. B.04.00).
To elucidate the metabolic pathways, metabolite identification studies were conducted using in vitro liver S9 fractions incubations (20 µM substrate) and in vivo plasma samples from mice administered an IP dose (200 µg/mouse). Metabolites were identified based on accurate mass measurements, isotopic patterns, and MS/MS fragmentation patterns compared to the parent compound using LC-Q-TOF MS/MS system (Agilent Technologies Ltd., Seoul, Republic of Korea).

[4] = Binding in human liver S9 fraction by equilibrium dialysis (RED); assay type: in vitro ADME; conditions: human, liver S9 fraction, pH 7.4, human liver S9, 1 mg/mL protein, equilibrium dialysis 37 °C 4 h, mean ± SD (n = 3); read-out: fu (%) in liver S9 fractions
Protocol: as §1, §2, §3, §4

[5] = Binding in mouse liver S9 fraction by equilibrium dialysis (RED); assay type: in vitro ADME; conditions: ICR, mouse, liver S9 fraction, pH 7.4, mouse liver S9, 1 mg/mL protein, equilibrium dialysis 37 °C 4 h, mean ± SD (n = 3); read-out: fu (%) in liver S9 fractions
Protocol: as §1, §2, §3, §4

[6] = tested on: flavin-containing monooxygenase (FMO) in HLM; experiment: FMO involvement: metabolic stability in control vs heat-inactivated human liver microsomes; assay type: in vitro ADME; conditions: pre-incubated 45 °C for 5 min vs control, 60 min incubation, NADPH
Protocol: (§5) To determine the potential involvement of flavin-containing monooxygenase (FMO), a parallel assay was conducted with HLM and MLM [31]. To selectively inactivate FMO, microsomes (20 mg protein/mL) were pre-incubated at 45 °C for 5 min. Non-inactivated microsomes served as the control. Subsequently, metabolic incubations were performed with both control and heat-inactivated microsomes at 37 °C for 60 min. The incubation procedure was identical to that described above for the S9 fractions, with the exception that NADPH was used as the sole cofactor.

[7] = tested on: flavin-containing monooxygenase (FMO) in MLM; experiment: FMO involvement: metabolic stability in control vs heat-inactivated mouse liver microsomes; assay type: in vitro ADME, male ICR mouse; conditions: pre-incubated 45 °C for 5 min vs control, 60 min incubation, NADPH
Protocol: as §5

SMILES: CNCCn1c(=O)c2nc(-c3ccc(C(F)(F)F)cc3)oc2c2ccccc21 [KB-1517 M1]
Species in whose liver S9 the metabolite was detected ([3]; KB-1517 20 µM): H, M

SMILES: C[N+](C)([O-])CCOc1nc2ccccc2c2oc(-c3ccc(C(F)(F)F)cc3)nc12 [KB-1518 M3]
Species in whose liver S9 the metabolite was detected ([3]; KB-1518 20 µM): H, M

SMILES: CN(CCO)c1nc2ccccc2c2oc(-c3ccc(C(F)(F)F)cc3)nc12 [KB-1518 M1]
Species in whose liver S9 the metabolite was detected ([3]; KB-1518 20 µM): H, M

SMILES: CCC(C)n1ncn(-c2ccc(N3CCN(c4ccc(OCC5COC(Cn6cncn6)(c6ccc(Cl)cc6Cl)O5)cc4)CC3)cc2)c1=O (stereo not drawn) [Itraconazole, itraconazole, reference compound]
fraction unbound at 4 h, 3 µM [4]: 0.028 ± 0.006 | fraction unbound at 4 h, 3 µM [5]: 0.019 ± 0.002

Further lines, results first:

fraction unbound at 4 h, 10 µM [1]: 0.247 ± 0.005 | fraction unbound at 4 h, 10 µM [2]: 0.262 ± 0.026
SMILES: CC(C)NCC(O)COc1cccc2ccccc12 (stereo not drawn) [Propranolol, propranolol]

fraction unbound at 4 h, 10 µM [1]: 0.888 ± 0.054 | fraction unbound at 4 h, 10 µM [2]: 0.85 ± 0.006
SMILES: CNC(=C[N+](=O)[O-])NCCSCc1ccc(CN(C)C)o1 [Ranitidine, ranitidine]

fraction unbound at 4 h, 3 µM [4]: 0.946 ± 0.026 | fraction unbound at 4 h, 3 µM [5]: 0.937 ± 0.011
SMILES: Cc1cc(=O)n(-c2ccccc2)n1C [Antipyrine, antipyrine, reference compound]

Species in whose liver S9 the metabolite was detected ([3]; KB-1517 20 µM): H, M
SMILES: C[N+](C)([O-])CCn1c(=O)c2nc(-c3ccc(C(F)(F)F)cc3)oc2c2ccccc21 [KB-1517 M2]

Effect of heat inactivation (FMO) on metabolism [6]: significantly inhibited the metabolism | Effect of heat inactivation (FMO) on metabolism [7]: significantly inhibited the metabolism
SMILES: CN(C)CCCOc1nn(Cc2ccccc2)c2ccccc12 [benzydamine, Benzydamine hydrochloride]

Species in whose liver S9 the metabolite was detected ([3]; KB-1518 20 µM): H, M
SMILES: OCCNc1nc2ccccc2c2oc(-c3ccc(C(F)(F)F)cc3)nc12 [KB-1518 M2]
